Data taken from the supplement of paper PMC10307832.

Tests used:
Assay in all cases: relative viability (nuclei count vs DMSO), 5 days (fraction); higher = more cells survive
[1] = test system: NCI-H1734
Method in brief: (§1)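 For relative viability, nuclei counts in treated wells were divided by those in vehicle wells. Lung cancer cell lines had been pin-tool dosed in 1536-well plates the day after seeding and cultured for 5 days, then fixed and stained in one step (final 0.05% Triton X-100, 1% formaldehyde, 1 ug/ml Hoechst) and imaged at 4×. Doses were one drug alone or a fixed anchor-drug dose plus five library-drug doses (not always all listed) in √10 steps, and values are duplicate-plate medians.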

[2] = test system: A549
Method in brief: as §1

[3] = test system: IA-LM
Method in brief: as §1

[4] = test system: NCI-H2009
Method in brief: as §1

[5] = test system: LK-2
Method in brief: as §1

[6] = test system: NCI-H1650
Method in brief: as §1

[7] = test system: EBC-1
Method in brief: as §1

[8] = test system: NCI-H1648
Method in brief: as §1

[9] = test system: A-427
Method in brief: as §1

[10] = test system: NCI-H1703
Method in brief: as §1

[11] = test system: UMC-11
Method in brief: as §1

[12] = test system: CAL-12T
Method in brief: as §1

[13] = test system: NCI-H1299
Method in brief: as §1

[14] = test system: Calu-6
Method in brief: as §1

SMILES: Nc1ccn([C@@H]2O[C@H](CO)[C@@H](O)[C@@H]2O)c(=O)n1 [Cytarabine] + O=C(c1cc(Cc2n[nH]c(=O)c3ccccc23)ccc1F)N1CCN(C(=O)C2CC2)CC1 [Olaparib] (partner 8 µM)
- relative viability ([1]; first compound 0.005 µM): 0.4
- relative viability ([1]; first compound 0.01581 µM): 0.243
- relative viability ([1]; first compound 0.05 µM): 0.183
- relative viability ([1]; first compound 0.1581 µM): 0.108
- relative viability ([1]; first compound 0.5 µM): 0.122
- relative viability ([2]; first compound 0.005 µM): 0.318
- relative viability ([2]; first compound 0.01581 µM): 0.242
- relative viability ([2]; first compound 0.05 µM): 0.0968
- relative viability ([2]; first compound 0.1581 µM): 0.0579
- relative viability ([2]; first compound 0.5 µM): 0.0331
- relative viability ([3]; first compound 0.005 µM): 0.626
- relative viability ([3]; first compound 0.01581 µM): 0.714
- relative viability ([3]; first compound 0.05 µM): 0.55
- relative viability ([3]; first compound 0.1581 µM): 0.372
- relative viability ([3]; first compound 0.5 µM): 0.268
- relative viability ([4]; first compound 0.005 µM): 0.744
- relative viability ([4]; first compound 0.01581 µM): 0.752
- relative viability ([4]; first compound 0.05 µM): 0.724
- relative viability ([4]; first compound 0.1581 µM): 0.644
- relative viability ([4]; first compound 0.5 µM): 0.202
- relative viability ([5]; first compound 0.005 µM): 0.659
- relative viability ([5]; first compound 0.01581 µM): 0.5
- relative viability ([5]; first compound 0.05 µM): 0.316
- relative viability ([5]; first compound 0.1581 µM): 0.164
- relative viability ([5]; first compound 0.5 µM): 0.148
- relative viability ([6]; first compound 0.005 µM): 0.638
- relative viability ([6]; first compound 0.01581 µM): 0.772
- relative viability ([6]; first compound 0.05 µM): 0.472
- relative viability ([6]; first compound 0.1581 µM): 0.268
- relative viability ([6]; first compound 0.5 µM): 0.168
- relative viability ([7]; first compound 0.005 µM): 0.725
- relative viability ([7]; first compound 0.01581 µM): 0.569
- relative viability ([7]; first compound 0.05 µM): 0.476
- relative viability ([7]; first compound 0.1581 µM): 0.375
- relative viability ([7]; first compound 0.5 µM): 0.241
- relative viability ([8]; first compound 0.005 µM): 0.904
- relative viability ([8]; first compound 0.01581 µM): 0.793
- relative viability ([8]; first compound 0.05 µM): 0.954
- relative viability ([8]; first compound 0.1581 µM): 0.319
- relative viability ([8]; first compound 0.5 µM): 0.377
- relative viability ([9]; first compound 0.005 µM): 0.479
- relative viability ([9]; first compound 0.01581 µM): 0.551
- relative viability ([9]; first compound 0.05 µM): 0.304
- relative viability ([9]; first compound 0.1581 µM): 0.223
- relative viability ([9]; first compound 0.5 µM): 0.253
- relative viability ([10]; first compound 0.005 µM): 0.338
- relative viability ([10]; first compound 0.01581 µM): 0.302
- relative viability ([10]; first compound 0.05 µM): 0.196
- relative viability ([10]; first compound 0.1581 µM): 0.0956
- relative viability ([10]; first compound 0.5 µM): 0.0977
- relative viability ([11]; first compound 0.005 µM): 0.345
- relative viability ([11]; first compound 0.01581 µM): 0.329
- relative viability ([11]; first compound 0.05 µM): 0.302
- relative viability ([11]; first compound 0.1581 µM): 0.248
- relative viability ([11]; first compound 0.5 µM): 0.218
- relative viability ([12]; first compound 0.005 µM): 0.859
- relative viability ([12]; first compound 0.01581 µM): 0.68
- relative viability ([12]; first compound 0.05 µM): 0.537
- relative viability ([12]; first compound 0.1581 µM): 0.288
- relative viability ([12]; first compound 0.5 µM): 0.223
- relative viability ([13]; first compound 0.005 µM): 0.991
- relative viability ([13]; first compound 0.01581 µM): 0.93
- relative viability ([13]; first compound 0.05 µM): 0.987
- relative viability ([13]; first compound 0.1581 µM): 0.985
- relative viability ([13]; first compound 0.5 µM): 0.94
- relative viability ([14]; first compound 0.005 µM): 0.597
- relative viability ([14]; first compound 0.01581 µM): 0.488
- relative viability ([14]; first compound 0.05 µM): 0.41
- relative viability ([14]; first compound 0.1581 µM): 0.337
- relative viability ([14]; first compound 0.5 µM): 0.225
